Measured values: BindingDB's records for doi:10.1021/jm00031a017 (University of California, 1994)

Test system: recombinant HIV-2 protease
Test: In vitro inhibition of recombinant HIV-2 protease expressed in Escherichia coli strain X90

O=C(C=CC[N+]1([O-])CCC(O)(c2ccc(Cl)cc2)CC1)c1ccc(F)cc1 (stereo unspecified) [(E)-4-[4-(4-Chloro-phenyl)-4-hydroxy-1-oxy-piperidin-1-yl]-1-(4-fluoro-phenyl)-but-2-en-1-one]
IC50: 40 µM
